Results: US20230158057A1, “COMPOSITIONS AND METHODS FOR THE TREATMENT OF PAIN” (Duke University, priority 2020, published 2023)

Legend:
IFN-β = assay: YFP (IFN-β) expression in DRG neurons of Ifnb1YFP/YFP reporter mice; assay type: in vivo, mouse
Protocol: Genetic mouse models: All mouse procedures were approved by the Duke University Institutional Animal Care and Use Committee (IACUC) and complied with relevant ethical guidelines. Mice were housed in an animal facility approved by the Association for Assessment and Accreditation of Laboratory Animal Care (AAALAC) under a 12 h light/dark cycle with food and water available ad libitum. All commercially-available genetic mouse models were obtained from Jackson Labs and maintained on a C57BL/6J background, including: Ifnb1YFP reporter mice (strain #010818) 1, STING “goldenticket” knockout mice 2 (STINGgt/gt; strain #017537), STING floxed/conditional knockout mice 3 (STINGfx/fx; strain #031670), Ifnar1 global knockout mice (Ifnar1−/−; strain #028288), Ifnar1 floxed/conditional knockout mice 4 (Ifnar1fx/fx; strain #028256), cGAS knockout mice 5 (cGAS−/−; strain #026554), and RIG-I knockout mice (RIG-I−/−; strain #46070-JAX). Nav1.8-Cre mice 6, also maintained on a C57BL/6J background, were a gift from Rohini Kuner (University of Heidelberg). NOD.CB17-Prkdcscid mice were also obtained from Jackson Labs (strain #001303) and maintained in a NOD/ShiLtSz genetic background. Unless otherwise noted, all experiments were conducted in adult (8-12-week-old) mice. Animals were randomly assigned to each experimental group. Both males and females were included in each group in a sex-matched manner. […]

DRG nociceptors = assay: Whole-cell patch clamp recordings in whole-mount DRGs ex vivo; assay type: cell-based, mouse; details: PTX-treated Ifnar1-WT or Ifnar1-KO mice, ex vivo incubation 30 μM
Protocol: Whole-cell patch clamp recordings in whole-mount DRGs ex vivo: To test the effects of anti-IFNβ neutralizing antibodies, naïve male and female mice were utilized. […] To perform whole-cell patch clamp recordings in whole-mount DRGs, L1-L5 DRGs were carefully isolated and placed in oxygenated ACSF. Using a stereoscope, peripheral and central DRG projections and connective tissue were dissected away. DRGs were lightly digested for 20 minutes using an enzymatic mixture consisting of 0.32 ml collagenase A (1 mg/mL) and Trypsin (0.25%). […] Following incubation, DRGs were transferred to a recording chamber, where neurons could be visualized using a 40× water-immersion objective on an Olympus BX51WI microscope. The recording chamber was continuously perfused (2-3 ml/min) with ACSF. The pipette solution contained 140 mM KC1, 2 mM MgCl2, 10 mM HEPES, 2 mM Mg-ATP at pH 7.4. The resistance of the glass pipettes was 8-10 MΩ. Data were acquired and analyzed using the pClamp10 (Axon Instruments) software.

[1] = system: tumor-infiltrating lymphocytes (TILs); assay: Flow cytometry of tumor-infiltrating lymphocytes in bone marrow; assay type: in vivo, mouse; details: 24 h after second injection
Protocol: Flow cytometry. For analysis of immune subsets present within the bone marrow tumor microenvironment, bone marrow was collected as previously described followed by removal of RBC cells using RBC lysis buffer (Sigma, R7757). Cells were subsequently washed with PBS and resuspended in 2% paraformaldehyde in PBS for 10 minutes. Fixed cells were washed several times with PBS, followed by incubation in blocking buffer (1% anti-mouse-CD16/CD32, 2.4 G2, 2% FBS, 5% NRS, 1% triton ×100 and 2% NMS in HBSS; BD Bioscience) for 1 h at room temperature. Cells were subsequently stained with IL-17-FITC (1:20, rat, Miltenyi Biotec, 130-102-262), CD-3 APC/cy7 (1:200, rat, Biolegend, 100221), CD-4 APC (1:200, rat, Biolegend, 100411), FoxP3-PE (1:20, human, Miltenyl Biotec, 130-111-678), CD8a-FITC (1:200, rat, Biolegend, 100705), and CD11b-PE(1:200, rat, Biolegend, 101207) in blocking buffer for 1 h at room temperature. After staining, cells were washed in PBS with EDTA. Flow cytometry events were acquired by a BD FACS Canto II flow cytometer using the BD FACS Diva 8 software (BD Bioscience). Data were analyzed using Cytobank software (https://www.cytobank.org/cytobank).

Compound	YFP (IFN-β) expression in DRG neurons (IFN-β)	action potential firing of DRG nociceptors (DRG nociceptors)	proportion of CD4^+ T cells in bone marrow [1]	proportion of CD8^+ T cells in bone marrow [1]	proportion of T^reg cells in bone marrow [1]
Nc1ncnc2c1ncn2[C@@H]1O[C@@H]2COP(=O)([S-])O[C@@H]3[C@H](O)[C@@H](COP([O-])(=S)O[C@H]2[C@H]1O)O[C@H]3n1cnc2c(N)ncnc21.[Na+].[Na+] (stereo partly drawn) [ADU-S100, (2′-5′)-[P(R)]-5′-O-[(R)-hydroxymercaptophosphinyl]-P-thioadenylyl-adenosine cyclic dinucleotide]	increased after ADU-S100 treatment	dramatically reduced action potential firing in WT mice, and this effect was abolished in Ifnar1-deficient neurons			
Cc1ccc2c(=O)c3cccc(CC(=O)O)c3oc2c1C [DMXAA, 2-(5,6-dimethyl-9-oxo-9H-xanthen-4-yl)acetic acid]			without significantly changing the proportion of (CD11b^− CD3^+) CD4^+ T cells	significantly increased the proportion of (CD11b^− CD3^+) CD8^+ T cells	decreased the proportion of T^reg cells
